Measurements published in ChEMBL document CHEMBL1140358, “1-Pentyl-3-phenylacetylindoles, a new class of cannabimimetic indoles” (Bioorg Med Chem Lett, 2005).

How the values were obtained:
[1] = biological target: T1, Cannabinoid receptor 1 (Rattus norvegicus, UniProt P20272); assay: Binding affinity to displace [3H]CP-55940 from CB1 receptor of rat brain
[2] = biological target: T2, Cannabinoid receptor 2 (Homo sapiens, UniProt P34972); assay: Binding affinity to displace [3H]CP-55940 from cloned human CB2 receptor
T2 sequence (P34972 whole entry): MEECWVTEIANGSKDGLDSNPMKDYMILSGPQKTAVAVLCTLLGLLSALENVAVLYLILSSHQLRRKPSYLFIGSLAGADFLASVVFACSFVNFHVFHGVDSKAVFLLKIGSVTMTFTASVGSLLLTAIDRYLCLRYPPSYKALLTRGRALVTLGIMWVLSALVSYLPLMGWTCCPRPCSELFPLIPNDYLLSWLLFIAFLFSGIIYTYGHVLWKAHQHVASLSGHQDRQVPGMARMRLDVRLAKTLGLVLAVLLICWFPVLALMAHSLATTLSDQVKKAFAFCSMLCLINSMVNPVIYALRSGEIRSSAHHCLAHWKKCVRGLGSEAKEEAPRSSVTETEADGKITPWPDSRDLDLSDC

[3] = Ratio of the binding affinity towards CB1 receptor to that of CB2 receptor
[4] = biological target: T1, Cannabinoid receptor 1; assay: Effective concentration for stimulation of [35S]GTP-gamma-S binding at CB1 receptor in presence of 10 uM WIN-55212-2; assay type: functional
[5] = biological target: T2, Cannabinoid receptor 2; assay: Percent maximal effectiveness for stimulation of [35S]GTP-gamma-S, binding at CB2 receptor in presence of 3 uM CP-55940; assay type: functional
[6] = biological target: T2, Cannabinoid receptor 2; assay: Effective concentration for stimulation of [35S]GTP-gamma-S, binding at CB2 receptor in presence of 3 uM CP-55940; assay type: functional

T1 sequence (P20272 whole entry): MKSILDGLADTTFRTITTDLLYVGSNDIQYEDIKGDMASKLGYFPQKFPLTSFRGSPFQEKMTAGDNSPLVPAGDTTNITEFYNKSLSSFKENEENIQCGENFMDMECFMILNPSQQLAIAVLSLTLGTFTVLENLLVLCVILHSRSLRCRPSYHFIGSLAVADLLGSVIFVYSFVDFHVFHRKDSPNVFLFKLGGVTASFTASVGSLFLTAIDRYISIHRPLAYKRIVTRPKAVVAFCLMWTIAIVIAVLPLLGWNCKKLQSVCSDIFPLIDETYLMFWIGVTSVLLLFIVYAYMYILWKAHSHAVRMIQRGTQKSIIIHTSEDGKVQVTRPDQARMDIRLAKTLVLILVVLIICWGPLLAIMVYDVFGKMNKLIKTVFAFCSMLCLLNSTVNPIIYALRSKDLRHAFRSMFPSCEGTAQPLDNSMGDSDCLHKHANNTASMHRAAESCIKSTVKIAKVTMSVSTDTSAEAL

Compound	Ki [1] [µM]	Ki [2] [µM]	Ratio [3]	EC50 [4] [µM]	Emax [5] [%]	EC50 [6] [µM]
CCCCCn1c(C)c(C(=O)Cc2ccccc2F)c2ccccc21	0.039	0.076	0.51			
CCCCCn1c(C)c(C(=O)Cc2ccc(C)cc2)c2ccccc21	0.746	1.35	0.55			
CCCCCn1cc(C(=O)Cc2ccc(C)cc2)c2ccccc21	0.179	0.57	0.31			
CCCCCn1c(C)c(C(=O)Cc2ccccc2Br)c2ccccc21	0.015	0.029	0.52			
CCCCCn1cc(C(=O)Cc2cccc(Cl)c2)c2ccccc21	0.038	0.106	0.36			
CCCCCn1cc(C(=O)Cc2ccccc2OC)c2ccccc21	0.011	0.033	0.33			
CCCCCn1cc(C(=O)Cc2ccccc2C)c2ccccc21	0.029	0.146	0.2	0.029	47	0.0083
CCCCCn1cc(C(=O)Cc2ccc(F)cc2)c2ccccc21	0.422	0.365	1.2			
CCCCCn1cc(C(=O)Cc2ccc(Cl)cc2)c2ccccc21	0.389	0.498	0.78			
CCCCCn1c(C)c(C(=O)Cc2ccc(Br)cc2)c2ccccc21		2.68	1.2			
CCCCCn1cc(C(=O)Cc2ccccc2)c2ccccc21	0.09	0.159	0.57			
CCCCCn1cc(C(=O)Cc2ccc(Br)cc2)c2ccccc21		0.657	1.6			
CCCCCn1c(C)c(C(=O)Cc2cccc(OC)c2)c2ccccc21	0.062	0.084	0.74			
CCCCCn1cc(C(=O)Cc2ccc(OC)cc2)c2ccccc21	1.06	0.444	2.4			
CCCCCn1c(C)c(C(=O)Cc2ccc(OC)cc2)c2ccccc21	1.68	0.645	2.6			
CCCCCn1c(C)c(C(=O)Cc2ccccc2OC)c2ccccc21	0.025	0.082	0.3			
CCCCCn1c(C)c(C(=O)Cc2cccc(Cl)c2)c2ccccc21	0.117	0.138	0.85			
CCCCCn1cc(C(=O)Cc2ccccc2F)c2ccccc21	0.023	0.039	0.6			
CCCCCn1cc(C(=O)Cc2ccccc2Br)c2ccccc21	0.0084	0.02	0.42			
CCCCCn1c(C)c(C(=O)Cc2ccccc2C)c2ccccc21	0.023	0.019	1.2			
CCCCCn1cc(C(=O)Cc2cccc(OC)c2)c2ccccc21	0.017	0.089	0.19	0.0293	33.5	0.0244
CCCCCn1cc(C(=O)Cc2ccccc2Cl)c2ccccc21	0.008	0.007	1.1			
CCCCCn1c(C)c(C(=O)Cc2cccc(F)c2)c2ccccc21	0.43	0.182	2.4			
CCCCCn1cc(C(=O)Cc2cccc(F)c2)c2ccccc21	0.072	0.091	0.79			
CCCCCn1c(C)c(C(=O)Cc2ccccc2Cl)c2ccccc21	0.013	0.025	0.52			
CCCCCn1c(C)c(C(=O)Cc2ccc(Cl)cc2)c2ccccc21	1.6	3.72	0.43			
CCCCCn1c(C)c(C(=O)Cc2ccccc2)c2ccccc21	0.124	0.18	0.69			
CCCCCn1c(C)c(C(=O)Cc2ccc(F)cc2)c2ccccc21	2.86	0.781	3.7			
